Measurements: patent publication US20240315992A1, “AMINOXY ACID-BASED ANTIBACTERIAL COMPOUNDS AND METHODS THEREOF” (The University of Hong Kong, priority 2023, published 2024)
In brackets after ≈: the same amount, converted by molar mass.

Tested on: multidrug resistant Staphylococcus aureus Mu3
Experiment: MIC by CLSI broth micro-dilution, MRSA Mu3
Format: cell-based
Details: MRSA, CLSI broth micro-dilution, CAMH, read-out: Minimum inhibitory concentration (μM) in MRSA Mu3
Experimental: Aminoxy acids were synthesized by the standard peptide coupling procedures. Minimum inhibitory concentration was determined using CLSI broth micro-dilution method in 96-wells microtitre plates. Minimum inhibitory concentration is defined as the lowest concentration of the compound that inhibits visible growth of the bacteria. All experiments were performed three times. 24 compounds including aminoxy acid monomers and dipeptides have been identified to show toxicity against multidrug resistant Staphylococcus aureus Mu3 and summarized in Table 1. The minimum inhibitory concentration of compound 8 and compound 35 on other gram-positive bacteria was also evaluated and summarized in Table 2. […] As shown in FIGS. 3A-3B there are no observable hemolysis for compound 8 and compound 35 towards human red blood cell.
Bacteria were streaked from the glycerol stock into BHI agar and were incubated overnight. Single colony was picked for the overnight culture in cation-adjusted Mueller Hinton broth (CAMH), LB or BHI. The overnight culture was sub-cultured and regrew to exponential phase for the experiment.
MIC was determined by CLSI broth micro-dilution method in 96-wells microtitre plates. For compounds dissolved in water, 100 μL of 2× testing concentration was added to the first well of each column, followed by two-fold serial dilution for successive wells with 50 μL medium. For chemical compounds dissolved in DMSO, the compounds were two-fold serial diluted by DMSO in a DMSO-compatible 96-well plate. 1 μL of compound in DMSO was transferred into 96-wells microtitre plate containing 50 μL medium to give 2× testing concentration. An overnight culture of bacteria was grown into exponential phase. The bacteria culture was diluted to 1×10^6 CFU/mL and 50 μL of diluted culture were added into each well. The test plates were kept in a 37° C. incubator overnight. Optical density was recorded by DTX 880 multimode detector (Beckman Coulter, California, US). MIC is defined as the lowest concentration of the compound that inhibits visible growth of bacteria. Biological replicates were performed. CAMH was used for bacteria culture and MIC test except S. pneumoniae, L. monocytogenes, E. faecalis and M. smegmatis for which BHI was used as culture medium

`Cc1cc(C)cc(C(=O)NO[C@H](COCc2ccccc2)C(=O)NO[C@@H](CC(C)C)C(=O)Nc2ccc3c(c2)OC(F)(F)O3)c1` [Compound 45] and `CC(C)C[C@H](ONC(=O)[C@@H](COCc1ccccc1)ONC(=O)c1ccc[nH]1)C(=O)Nc1ccc2c(c1)OC(F)(F)O2` [Compound 51] cannot be ordered by MIC: > 12.5 µM for the first, > 12.5 µM for the second.

`CC(C)C[C@@H](ONC(=O)c1cc(C(F)(F)F)cc(C(F)(F)F)c1)C(=O)Nc1ccccc1` [Compound 3] and `CC(C)C[C@H](ONC(=O)[C@H](COCc1ccccc1)ONC(=O)c1cc(C(F)(F)F)cc(C(F)(F)F)c1)C(=O)Nc1ccccc1` [Compound 6] are the same in MIC: 3.13 µM (≈ 1.45 µg/mL) for the first, 3.13 µM (≈ 2.05 µg/mL) for the second.

Going from `CC(C)C[C@H](ONC(=O)[C@@H](COCc1ccccc1)ONC(=O)c1cc(C(F)(F)F)cc(C(F)(F)F)c1)C(=O)Nc1cncnc1` [Compound 27] to `CC(C)C[C@H](ONC(=O)[C@@H](COCc1ccccc1)ONC(=O)c1cc(C(F)(F)F)cc(C(F)(F)F)c1)C(=O)Nc1ccc(F)cc1` [Compound 36], the MIC falls from > 12.5 µM to 3.13 µM (≈ 2.11 µg/mL).

`CC(C)C[C@H](ONC(=O)[C@@H](COCc1ccccc1)ONS(=O)(=O)c1ccc(C(F)(F)F)cc1)C(=O)Nc1ccc2c(c1)OC(F)(F)O2` [Compound 54] and `Cc1ccc(S(=O)(=O)NO[C@H](COCc2ccccc2)C(=O)NO[C@@H](CC(C)C)C(=O)Nc2ccc3c(c2)OC(F)(F)O3)cc1` [Compound 53] cannot be ordered by MIC: > 12.5 µM for the first, > 12.5 µM for the second.

Going from `CC(C)C[C@H](ONC(=O)[C@@H](COCc1ccccc1)ONC(=O)c1cc(C(F)(F)F)cc(C(F)(F)F)c1)C(=O)Nc1ccc2ccccc2c1` [Compound 39] to `CC(C)C[C@H](ONC(=O)[C@@H](COCc1ccccc1)ONC(=O)c1cc(C(F)(F)F)cc(C(F)(F)F)c1)C(=O)Nc1ccc2cc[nH]c2c1` [Compound 23], the MIC rises from 1.56 µM (≈ 1.1 µg/mL) to > 12.5 µM.

`CC(C)C[C@H](ONC(=O)[C@@H](COCc1ccccc1)ONC(=O)c1cc(C(F)(F)F)cc(C(F)(F)F)c1)C(=O)NOCc1ccccc1` [Compound 40] and `CC(C)C[C@H](ONC(=O)[C@@H](COCc1ccccc1)ONC(=O)c1cc(C(F)(F)F)cc(C(F)(F)F)c1)C(=O)NOc1ccccc1` [Compound 41] cannot be ordered by MIC: > 12.5 µM for the first, > 12.5 µM for the second.

`CC(C)C[C@H](ONC(=O)[C@@H](COCc1ccccc1)ONC(=O)c1cc(C(F)(F)F)cc(C(F)(F)F)c1)C(=O)NC1CCCCC1` [Compound 22] and `CC(C)C[C@H](ONC(=O)[C@@H](COCc1ccccc1)ONC(=O)c1cc(C(F)(F)F)cc(C(F)(F)F)c1)C(=O)NC1CC1` [Compound 28] cannot be ordered by MIC: > 12.5 µM for the first, > 12.5 µM for the second.

Going from `C[C@@H](ONC(=O)[C@@H](COCc1ccccc1)ONC(=O)c1cc(C(F)(F)F)cc(C(F)(F)F)c1)C(=O)Nc1ccccc1` [Compound 17] to `O=C(NO[C@H](COCc1ccccc1)C(=O)Nc1ccccc1)c1cc(C(F)(F)F)cc(C(F)(F)F)c1` [Compound 2], the MIC falls from > 12.5 µM to 6.25 µM (≈ 3.29 µg/mL).

Going from `O=C(NO[C@H](COCc1ccccc1)C(=O)NO[C@@H](Cc1ccccc1)C(=O)Nc1ccccc1)c1cc(C(F)(F)F)cc(C(F)(F)F)c1` [Compound 11] to `O=C(NO[C@H](COCc1ccccc1)C(=O)NO[C@H](Cc1c[nH]c2ccccc12)C(=O)Nc1ccccc1)c1cc(C(F)(F)F)cc(C(F)(F)F)c1` [Compound 10], the MIC rises from 3.13 µM (≈ 2.16 µg/mL) to 6.25 µM (≈ 4.55 µg/mL) (2-fold).

Going from `CC(C)(C)OC[C@@H](ONC(=O)[C@@H](COCc1ccccc1)ONC(=O)c1cc(C(F)(F)F)cc(C(F)(F)F)c1)C(=O)Nc1ccccc1` [Compound 13] to `CC(C)(C)OC(=O)C[C@@H](ONC(=O)[C@@H](COCc1ccccc1)ONC(=O)c1cc(C(F)(F)F)cc(C(F)(F)F)c1)C(=O)Nc1ccccc1` [Compound 14], the MIC falls from 6.25 µM (≈ 4.29 µg/mL) to 3.13 µM (≈ 2.23 µg/mL) (2-fold).

`CC(C)C[C@H](ONC(=O)[C@@H](COCc1ccccc1)ONC(=O)c1ccc2ccccc2c1)C(=O)Nc1ccc2c(c1)OC(F)(F)O2` [Compound 46] and `CC(C)C[C@H](ONC(=O)[C@@H](COCc1ccccc1)ONC(=O)c1ccccc1)C(=O)Nc1ccc2c(c1)OC(F)(F)O2` [Compound 44] cannot be ordered by MIC: > 12.5 µM for the first, > 12.5 µM for the second.

Going from `CC(C)C[C@H](ONC(=O)[C@@H](COCc1ccccc1)ONC(=O)c1cc(C(F)(F)F)cc(C(F)(F)F)c1)C(=O)Nc1ccc(C(F)(F)F)cc1` [Compound 38] to `CC(C)C[C@H](ONC(=O)[C@@H](COCc1ccccc1)ONC(=O)c1cc(C(F)(F)F)cc(C(F)(F)F)c1)C(=O)Nc1ccc(C#N)cc1` [Compound 37], the MIC rises from 1.56 µM (≈ 1.13 µg/mL) to 6.25 µM (≈ 4.25 µg/mL) (4-fold).

`CC(C)C[C@H](ONC(=O)[C@@H](COCc1ccccc1)ONC(=O)c1cc(C(F)(F)F)cc(C(F)(F)F)c1)C(=O)Nc1cccc2cc[nH]c12` [Compound 25] and `COc1ccc(NC(=O)[C@H](CC(C)C)ONC(=O)[C@@H](COCc2ccccc2)ONC(=O)c2cc(C(F)(F)F)cc(C(F)(F)F)c2)cc1` [Compound 29] are the same in MIC: 6.25 µM (≈ 4.34 µg/mL) for the first, 6.25 µM (≈ 4.29 µg/mL) for the second.

First: CC(C)C[C@H](ONC(=O)[C@@H](COCc1ccccc1)ONC(=O)c1ccc2c(c1)OC(F)(F)O2)C(=O)Nc1ccc2c(c1)OC(F)(F)O2 [Compound 52]
Second: CC(C)C[C@H](ONC(=O)[C@@H](COCc1ccccc1)ONC(=O)c1ccc(F)cc1)C(=O)Nc1ccc2c(c1)OC(F)(F)O2 [Compound 47]
The MIC of the first is lower: 3.13 µM (≈ 2.13 µg/mL) for the first, > 12.5 µM for the second.

`CC(C)C[C@H](ONC(=O)[C@@H](COCc1ccccc1)ONS(=O)(=O)c1cc(C(F)(F)F)cc(C(F)(F)F)c1)C(=O)Nc1ccc2c(c1)OC(F)(F)O2` [Compound 55] and `CC(C)C[C@H](ONC(=O)[C@@H](COCc1ccccc1)ONC(=O)c1c(F)cccc1F)C(=O)Nc1ccc2c(c1)OC(F)(F)O2` [Compound 48] cannot be ordered by MIC: > 12.5 µM for the first, > 12.5 µM for the second.

`CC(C)C[C@H](ONC(=O)[C@@H](COCc1ccccc1)ONC(=O)c1cc(C(F)(F)F)cc(C(F)(F)F)c1)C(=O)Nc1ccc(N2CCOCC2)cc1` [Compound 33] and `CC(C)C[C@H](ONC(=O)[C@@H](COCc1ccccc1)ONC(=O)c1cc(C(F)(F)F)cc(C(F)(F)F)c1)C(=O)N1CCOCC1` [Compound 32] cannot be ordered by MIC: > 12.5 µM for the first, > 12.5 µM for the second.

`CC(C)C[C@H](ONC(=O)[C@@H](COCc1ccccc1)NC(=O)c1cc(C(F)(F)F)cc(C(F)(F)F)c1)C(=O)Nc1ccccc1` [Compound 57] and `O=C(CONC(=O)[C@@H](COCc1ccccc1)ONC(=O)c1cc(C(F)(F)F)cc(C(F)(F)F)c1)Nc1ccccc1` [Compound 16] cannot be ordered by MIC: > 12.5 µM for the first, > 12.5 µM for the second.

Going from `CC(C)(C)OC(=O)NCCCC[C@@H](ONC(=O)[C@@H](COCc1ccccc1)ONC(=O)c1cc(C(F)(F)F)cc(C(F)(F)F)c1)C(=O)Nc1ccccc1` [Compound 19] to `NCCCC[C@@H](ONC(=O)[C@@H](COCc1ccccc1)ONC(=O)c1cc(C(F)(F)F)cc(C(F)(F)F)c1)C(=O)Nc1ccccc1` [Compound 20], the MIC rises from 12.5 µM (≈ 9.63 µg/mL) to > 12.5 µM.

First: CC(C)CNC(=O)[C@H](CC(C)C)ONC(=O)[C@@H](COCc1ccccc1)ONC(=O)c1cc(C(F)(F)F)cc(C(F)(F)F)c1 [Compound 24]
Second: CC(C)C[C@H](ONC(=O)[C@@H](COCc1ccccc1)ONC(=O)c1cc(C(F)(F)F)cc(C(F)(F)F)c1)C(=O)NC12CC3CC(CC(C3)C1)C2 [Compound 26]
The MIC of the first is higher: > 12.5 µM for the first, 6.25 µM (≈ 4.46 µg/mL) for the second.

`CC(C)C[C@H](ONC(=O)[C@@H](COCc1ccccc1)ONC(=O)C(C)(C)C)C(=O)Nc1ccc2c(c1)OC(F)(F)O2` [Compound 42] and `CC(C)C[C@H](ONC(=O)[C@@H](COCc1ccccc1)ONC(=O)C12CC3CC(CC(C3)C1)C2)C(=O)Nc1ccc2c(c1)OC(F)(F)O2` [Compound 43] cannot be ordered by MIC: > 12.5 µM for the first, > 12.5 µM for the second.

`CC(C)(C)OC(=O)[C@@H](COCc1ccccc1)ONC(=O)[C@@H](COCc1ccccc1)ONC(=O)c1cc(C(F)(F)F)cc(C(F)(F)F)c1` [Compound 4] was tested, and the MIC was > 12.5 µM.
